Data from patent US20260176270A1 (Exelixis, Inc., priority 2022, published 2026).
Like-named read-outs stand apart in the source and are kept apart here.

Assays:
[1] = test system: phosphorylation of CDK1 at Thr14 in HCC1806 cells; test: Cell lysate AlphaLISA assay measuring inhibition of phosphorylation of CDK1 Thr14; format: cell-based; conditions: read-out: Cellular IC50
Procedure, shortened: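 HCC1806 cells seeded overnight, then treated 4 h at 37 °C, 5% CO2 with compounds in DMSO; washed and lysed, lysates frozen overnight at −80 °C. CDK1 Thr14 phosphorylation read by AlphaLISA SureFire Ultra; data normalized to DMSO (0% inhibition) and 3 μM reference compound to give IC50.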

PKMYT1 = target: T1, PKMYT1 (Homo sapiens, UniProt Q99640); test: ADP-Glo PKMYT1 ATP-depletion assay; conditions: 50 nM PKMYT1, 13.3 nM CDK1, read-out: Biochemical IC50
T1 construct: PKMYT1 (93 kD, full length, N-terminal GST tag from Signal Chem); GST (N); purchased Signal Chem
T1 sequence (Q99640 1-499): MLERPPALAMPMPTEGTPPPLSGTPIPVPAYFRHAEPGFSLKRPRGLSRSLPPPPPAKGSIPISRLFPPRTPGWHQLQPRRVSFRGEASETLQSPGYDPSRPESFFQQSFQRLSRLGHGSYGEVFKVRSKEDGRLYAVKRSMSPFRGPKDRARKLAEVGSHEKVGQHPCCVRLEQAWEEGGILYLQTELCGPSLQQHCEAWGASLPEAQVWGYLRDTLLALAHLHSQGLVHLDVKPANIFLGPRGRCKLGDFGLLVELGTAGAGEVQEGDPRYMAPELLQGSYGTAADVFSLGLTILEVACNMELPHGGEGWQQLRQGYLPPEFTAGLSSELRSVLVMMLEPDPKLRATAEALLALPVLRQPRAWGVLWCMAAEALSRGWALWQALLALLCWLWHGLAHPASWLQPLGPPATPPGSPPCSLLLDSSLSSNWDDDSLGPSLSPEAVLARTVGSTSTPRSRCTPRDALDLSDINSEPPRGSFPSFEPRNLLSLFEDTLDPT
Procedure, shortened: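 Full-length N-terminal GST-tagged PKMYT1 (50 nM) with GST-CDK1 (13.3 nM) as substrate and 88 µM ATP, in Hepes buffer with MgCl2, MnCl2, DTT and BSA; DMSO <1%. Incubated 120 min at RT. ADP formed was quantified by ADP-Glo luminescence and used to derive biochemical IC50.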

| Structure (SMILES) | IC50 ([1]; 4 hours) | IC50 (PKMYT1) | IC50 ([1]; Homo sapiens, HCC1806, 4 h) |
| --- | --- | --- | --- |
| NC(=O)c1cc2nccnc2c(-c2cccc(O)c2Cl)c1N (single isomer, unassigned) [Compound 105, (P)-7-Amino-8-(2-chloro-3-hydroxyphenyl)quinoxaline-6-carboxamide] | 0.05 to 0.5 µM | < 0.05 µM |  |
| Cc1ccc(O)c(C)c1-c1c(N)c(C(N)=O)cc2nccnc12 (single isomer, unassigned) [Compound 85, (M)-7-amino-8-(3-hydroxy-2,6-dimethylphenyl)quinoxaline-6-carboxamide] | ≥ 5 µM | 1 to 5 µM |  |
| Cc1ccc(O)c(C)c1-c1c(N)c(C(N)=O)nc2c(F)cccc12 (single isomer, unassigned) [Compound 38, (M)-3-Amino-8-fluoro-4-(3-hydroxy-2,6-dimethylphenyl) quinoline-2-carboxamide] | 0.05 to 0.5 µM | 0.05 to 0.5 µM |  |
| Cc1c(O)cccc1-c1c(N)c(C(N)=O)cc2cccnc12 (single isomer, unassigned) [Compound 63] | ≥ 5 µM | 1 to 5 µM |  |
| Cc1ccc2[nH]ncc2c1-c1c(N)c(C(N)=O)nc2cccnc12 [Compound 6, 3-amino-4-(5-methyl-1H-indazol-4-yl)-1,5-naphthyridine-2-carboxamide] |  | 0.05 to 0.5 µM | 1 to 5 µM |
| Cc1c(O)cccc1-c1c(N)c(C(N)=O)cc2cccnc12 (single isomer, unassigned) [Compound 62] | 0.05 to 0.5 µM | < 0.05 µM |  |
| Cc1ccc2[nH]ncc2c1-c1c(N)c(C(N)=O)cc2nccnc12 (single isomer, unassigned) [Compound 78, (P)-7-Amino-8-(5-methyl-1H-indazol-4-yl)quinoxaline-6-carboxamide] | 1 to 5 µM | 0.05 to 0.5 µM |  |
| Cc1c(O)cccc1-c1c(N)c(C(N)=O)cc2nc(C(F)(F)F)c(O)nc12 [Compound 133] | 1 to 5 µM | 0.05 to 0.5 µM |  |
| Cc1c(O)cccc1-c1c(N)c(C(N)=O)cc2nccnc12 (single isomer, unassigned) [Compound 89, (M)-7-amino-8-(3-hydroxy-2-methylphenyl)quinoxaline-6-carboxamide] | ≥ 5 µM | 1 to 5 µM |  |

Results, then the molecule that gave them:

| IC50 ([1]; 4 hours) | IC50 (PKMYT1) | IC50 ([1]; Homo sapiens, HCC1806, 4 h) | Structure (SMILES) |
| --- | --- | --- | --- |
|  | ≥ 5 µM | ≥ 5 µM | Cc1c(-c2c(N)c(C(N)=O)cc3nccnc23)ccc2oc(N)nc12 [Compound 197] |
|  | 0.05 to 0.5 µM | 0.5 to 1 µM | Cc1c(O)cccc1-c1c(N)c(C(N)=O)nc2cccc(S(C)(=O)=O)c12 [Compound 319] |
| ≥ 5 µM | ≥ 5 µM |  | Cc1ccc2[nH]nc(F)c2c1-c1c(N)c(C(N)=O)cc2nccnc12 (atropisomer, axis not shown) [Compound 299] |
|  | 0.05 to 0.5 µM | ≥ 5 µM | Cc1c(O)cccc1-c1c(N)c(C(N)=O)nc2c(=O)[nH]cnc12 [Compound 282] |
| 0.05 to 0.5 µM | < 0.05 µM |  | Cc1c(O)cccc1-c1c(N)c(C(N)=O)cc2cc(Cl)cnc12 (atropisomer, axis not shown) [Compound 179] |
|  | ≥ 5 µM | ≥ 5 µM | CC1=C(c2c(N)c(C(N)=O)nc3cccnc23)CCC[C@H]1O [Compound 309] |
|  | ≥ 5 µM | ≥ 5 µM | CC1=C(c2c(N)c(C(N)=O)nc3cccnc23)CCCC1=O [Compound 303] |
